Reference: PubChem BioAssay AID248 (DTP/NCI, 2004)
Toxic doses and inconclusive results are not listed. Cut-off read from the data, not from the text of the source: active = T/C of 150% or more; inactive = T/C below 125%.

Tested on: L1210 leukemia ip in BDF1 mice, survival T/C
Assay: NCI In Vivo Anticancer Drug Screen. Data for tumor model L1210 Leukemia (intraperitoneal) in B6D2F1 (BDF1) mice
Details: endpoint: mean survival time, higher = longer survival
Procedure, shortened: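 Tumor cells were implanted, animals were treated, and survival was followed. The result divides the treated measurement by the vehicle-control measurement.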

[1] = dose: 100.0 mg/kg/injection, schedule: Q01DX009 (ip), vehicle: Klucel (hydroxypropylcellulose) (HPC)
[2] = dose: 100.0 mg/kg/injection, schedule: Q04DX003 (ip), vehicle: Klucel (hydroxypropylcellulose) (HPC)
[3] = dose: 200.0 mg/kg/injection, schedule: Q01DX009 (ip), vehicle: Klucel (hydroxypropylcellulose) (HPC)
[4] = dose: 200.0 mg/kg/injection, schedule: Q04DX003 (ip), vehicle: Klucel (hydroxypropylcellulose) (HPC)
[5] = dose: 400.0 mg/kg/injection, schedule: Q04DX003 (ip), vehicle: Klucel (hydroxypropylcellulose) (HPC)
[6] = dose: 100.0 mg/kg/injection, schedule: Q04DX003 (ip), vehicle: saline with Tween-80
[7] = dose: 200.0 mg/kg/injection, schedule: Q04DX003 (ip), vehicle: saline with Tween-80
[8] = dose: 400.0 mg/kg/injection, schedule: Q04DX003 (ip), vehicle: saline with Tween-80

Measured: T/C

C=CCN1C(=O)c2ccccc2C1=O
inactive: [1] 100 % of control | [2] 95 % of control | [3] 100 % of control | [4] 95 % of control | dose: 400.0 mg/kg/injection, schedule: Q01DX009 (ip), vehicle: Klucel (hydroxypropylcellulose) (HPC) 91 % of control | [5] 92 % of control

CC(=O)N1C(=O)NC(=O)C1(CSCc1ccccc1)CSCc1ccccc1
inactive: dose: 50.0 mg/kg/injection, schedule: Q01DX005 (ip), vehicle: saline 104 % of control | dose: 100.0 mg/kg/injection, schedule: Q01DX005 (ip), vehicle: saline 98 % of control | dose: 200.0 mg/kg/injection, schedule: Q01DX005 (ip), vehicle: saline 110 % of control | dose: 400.0 mg/kg/injection, schedule: Q01DX005 (ip), vehicle: saline 94 % of control

COC1OC2COC(c3ccccc3)OC2C(OC(C)=O)C1OC(C)=O (configuration not stated)
inactive: dose: 100.0 mg/kg/injection, schedule: Q04DX002 (ip), vehicle: Klucel (hydroxypropylcellulose) (HPC) 95 % of control | dose: 200.0 mg/kg/injection, schedule: Q04DX002 (ip), vehicle: Klucel (hydroxypropylcellulose) (HPC) 117 % of control | dose: 400.0 mg/kg/injection, schedule: Q04DX002 (ip), vehicle: Klucel (hydroxypropylcellulose) (HPC) 120 % of control

OC1CC2CC1C=C2c1ccccc1 (configuration not stated)
inactive: [6] 102 % of control | [7] 86 % of control | [8] 91 % of control

CCOC(=O)CCC(NC(=O)c1ccc(N(C)S(=O)(=O)c2ccc(C)cc2)c(F)c1)C(=O)OCC (configuration not stated)
inactive: dose: 75.0 mg/kg/injection, schedule: Q01DX001 (ip), vehicle: saline 100 % of control | dose: 75.0 mg/kg/injection, schedule: Q04DX003 (ip), vehicle: saline 103 % of control | dose: 150.0 mg/kg/injection, schedule: Q01DX001 (ip), vehicle: saline 98 % of control | dose: 150.0 mg/kg/injection, schedule: Q04DX003 (ip), vehicle: saline 95 % of control | dose: 300.0 mg/kg/injection, schedule: Q01DX001 (ip), vehicle: saline 96 % of control | dose: 300.0 mg/kg/injection, schedule: Q04DX003 (ip), vehicle: saline 103 % of control

CCCCCCCCCCCC[N+](CCO)(CCO)Cc1ccccc1
inactive: dose: 3.12 mg/kg/injection, schedule: Q01DX009 (ip), vehicle: saline 96 % of control | dose: 6.25 mg/kg/injection, schedule: Q01DX009 (ip), vehicle: saline 98 % of control | dose: 12.5 mg/kg/injection, schedule: Q04DX003 (ip), vehicle: saline 88 % of control

COc1ccnc(SCc2ccccc2)n1
inactive: [1] 97 % of control | [2] 100 % of control | [3] 95 % of control | [4] 100 % of control | [5] 102 % of control

CNc1nnnn1Cc1ccccc1
inactive: dose: 100.0 mg/kg/injection, schedule: Q04DX003 (ip), vehicle: saline 105 % of control | dose: 200.0 mg/kg/injection, schedule: Q04DX003 (ip), vehicle: saline 94 % of control | dose: 400.0 mg/kg/injection, schedule: Q04DX003 (ip), vehicle: saline 97 % of control

CC1(C)OC(=O)C2C3CCC(C2C(=O)O)C31 (configuration not stated)
inactive: [2] 100 % of control | [4] 96 % of control | [5] 100 % of control

CCO/C(C)=C(/C(C)=O)C(=O)NC1CCCCC1
inactive: dose: 100.0 mg/kg/injection, schedule: Q01DX009 (ip), vehicle: saline with Tween-80 100 % of control | [6] 101 % of control | dose: 200.0 mg/kg/injection, schedule: Q01DX009 (ip), vehicle: saline with Tween-80 100 % of control | [7] 95 % of control | dose: 400.0 mg/kg/injection, schedule: Q01DX009 (ip), vehicle: saline with Tween-80 102 % of control | [8] 98 % of control
